Measured values as given in patent publication US9668993B2, “Non-steroidal anti-inflammatory drug dosing regimen” (Johnson & Johnson Consumer Inc., priority 2003, dated 2017).

Tested on: moderate to severe post-operative dental pain
Experiment: PK/PD dental pain study, pain relief scores and pain intensity differences over 12 hours
Format: in vivo, human
Conditions: for pain relief during the first four hours: compared with the other treatments
Procedure: A double-blind, randomized, parallel, placebo-controlled, single center, PK/PD dental pain study was conducted over a 12 hour observation period to evaluate the pharmacokinetic, pharmacodynamic, efficacy and safety profiles of certain ibuprofen dosing regimens. Specifically, a single dose of 600 mg ibuprofen extended release caplets was compared with equivalent total doses of ibuprofen immediate release 200 mg caplets administered in three different dosing regimens as well as placebo in the treatment of moderate to severe post-operative dental pain.
The ibuprofen was administered as ibuprofen extended release 600 mg caplets or one or more ibuprofen immediate release 200 mg caplets.
The patients evaluated in this study consisted of male or non-pregnant and non-lactating female out-patient volunteers, 16 years of age or older, complaining of moderate to severe pain following the surgical extraction of three or four third molars with at least one partial or complete bony impacted third mandibular molar. The term impacted included: partial bony impaction, bony impaction, or complicated bony impaction. A total of 210 patients were entered into the study. 208 patients were eligible for the efficacy analyses.
All patients who met the entrance criteria were enrolled in one of two study sub-groups. One sub-group of patients had both pharmacokinetic and pharmacodynamic evaluation (PK group). The other sub-group of patients had only the analgesic efficacy evaluations (non-PK group). A separate randomization schedule was used for each of the two sub-groups. Patients from both subgroups were assigned at random to one of the five following treatments:
Patients' assessments of pain intensity and pain relief as well as blood samples for plasma ibuprofen analysis were obtained at the study site at hours 0, 0.25, 0.5, 1, 1.5, 2, 2.5, 3, 4, 4.5, 5, 6, 7, 8, 8.5, 9, 10, 11 and 12. A stopwatch technique was used to measure the onset of meaningful pain relief.

Q: With `CC(C)Cc1ccc(C(C)C(=O)O)cc1` (centres unmarked) [ibuprofen, 2-(4-isobutylphenyl)-propionic acid] as the compound, how does the “pain relief during the first four hours” value (400/200/0 regimen: immediate release 400 mg at 0 hour, 200 mg at 4 hours) read?
A: superior pain relief over the other treatments

Q: What about the “pain relief over the entire 12 hour study period” value (400/200/0 regimen: immediate release 400 mg at 0 hour, 200 mg at 4 hours, patients after third molar extraction) of the same compound?
A: excellent pain relief

Q: And the “pain relief scores during the 4 to 12 hour interval” value (400/200/0 regimen, no further ibuprofen after the first four hours)?
A: highest pain relief scores

Q: What about the “pain intensity differences (PID) over the 12 hour study period” value (400/200/0 regimen, particularly after the four hour mark) of the same compound?
A: best PID

Q: And the “pain relief during the first four hours” value (600/0/0 immediate release regimen: 600 mg single dose at 0 hour)?
A: superior pain relief over the other treatments
